Holding throughout (assay type): cell-based
Assay [1] relates to M. Smegmatis ATCC607. Nature of the assay: In-vitro anti-bacterial activity against strain M. smegmatis ATCC607. The note with it: for IC90: Mycolicibacterium smegmatis. As for the experimental part: Flat-bottom, sterile 96-well plastic microtiter plates were filled with 180 μl of sterile deionized water, supplemented with 0.25% BSA. Subsequently, stock solutions (7.8× final test concentration) of compounds were added in 45 μl volumes to a series of duplicate wells in column 2 so as to allow evaluation of their effects on bacterial growth. Serial five-fold dilutions (45 μl in 180 μl) were made directly in the microtiter plates from column 2 to 11 using a customised robot system (Zymark Corp., Hopkinton, Mass.). Pipette tips were changed after every 3 dilutions to minimize pipetting errors with high hydrophobic compounds. Untreated control samples with (column 1) and without (column 12) inoculum were included in each microtiter plate. Approximately 250 CFU per well of bacteria inoculum, in a volume of 100 μl in 2.8× Mueller-Hinton broth medium, was added to the rows A to H, except column 12. The same volume of broth medium without inoculum was added to column 12 in row A to H. The cultures were incubated at 37° C. for 48 hours in a humidified 5% CO2 atmosphere (incubator with open air valve and continuous ventilation). At the end of incubation, two days after inoculation, the bacterial growth was quantitated fluorometrically. Therefore Alamar Blue (10×) was added to all wells in a volume of 20 μl and plates were incubated for another 2 hours at […]
The fluorescence was read in a computer-controlled fluorometer (Cytofluor, Biosearch) at an excitation wavelength of 530 nm and an emission wavelength of 590 nm (gain 30).

Assay [2] has as its system Staphylococcus aureus (ATCC29213). Nature of the assay: Microtitre plate assay, IC90 determination, STA 29213. As for the experimental part: (§1) The bacteria used in this study were grown overnight in flasks containing 100 ml Mueller-Hinton Broth (Becton Dickinson—cat. no. 275730) in sterile de-ionized water, with shaking, at 37° C. Stocks (0.5 ml/tube) were stored at −70° C. until use. Bacteria titrations were performed in microtiter plates to detect the TCID50, in which the TCID50 represents the dilution that gives rise to bacterial growth in 50% of inoculated cultures.
(§2) In general, an inoculum level of approximately 100 TCID50 was used for susceptibility testing.
(§3) Flat-bottom, sterile 96-well plastic microtiter plates were filled with 180 μl of sterile deionized water, supplemented with 0.25% BSA. Subsequently, stock solutions (7.8× final test concentration) of compounds were added in 45 μl volumes in column 2 Serial five-fold dilutions (45 μl in […]) were made directly in the microtiter plates from column 2 to reach column 11. Untreated control samples with (column 1) and without (column 12) inoculum were included in each microtiter plate. Depending on the bacteria type, approximately 10 to 60 CFU per well of bacteria inoculum (100 TCID50), in a volume of 100 μl in 2.8× Mueller-Hinton broth medium, was added to the rows A to H, except column 12. The same volume of broth medium without inoculum was added to column 12 in row A to H. The cultures were incubated at 37° C. for 24 hours under a normal atmosphere (incubator with open air valve and continuous ventilation). At the end of incubation, one day after inoculation, the bacterial growth was quantitated fluorometrically. Therefore resazurin (0.6 mg/ml) was added in a volume of 20 μl to all wells 3 hours after inoculation, and the plates were re-incubated overnight. A change in colour from blue to pink indicated the growth of bacteria. The fluorescence was read in a computer-controlled fluorometer (Cytofluor Biosearch) at an excitation wavelength of 530 nm and an emission wavelength of 590 nm. The % growth inhibition achieved by the compounds was calculated according to standard methods.

Assay [3] relates to Streptococcus pneumoniae (ATCC6305). The experiment in a line: Microtitre plate assay, IC90 determination, SPN 6305. The note with it: 90% inhibitory concentration for bacterial growth, resazurin. As for the experimental part: as §1, §2, §3
Setting [4] is: ATCC607, 48 h, read-out: M. smegmatis IC90 (μg/ml), 90% inhibitory concentration for bacterial growth, Alamar Blue fluorescence.
The mark [5] stands for this setting: Staphylococcus aureus, ATCC29213, read-out: IC90 (μg/ml) STA 29213.
The mark [6] stands for this setting: Streptococcus pneumoniae, ATCC6305, read-out: IC90 (μg/ml) SPN 6305, Streptococcus pneumoniae ATCC6305.
The mark [7] stands for this setting: 90% inhibitory concentration for bacterial growth, 48 hours, Alamar Blue fluorescence.
[8] abbreviates: Staphylococcus aureus ATCC29213, 90% inhibitory concentration for bacterial growth, resazurin.
Where [9] appears, read: Streptococcus pneumoniae ATCC6305.
Where [10] appears, read: ATCC607, 90% inhibitory concentration for bacterial growth, 48 hours, Alamar Blue fluorescence, read-out: M. smegmatis IC90.
[11] abbreviates: Staphylococcus aureus ATCC29213, 90% inhibitory concentration for bacterial growth, resazurin, read-out: IC90 (μg/ml) STA 29213.
Setting [12] is: Streptococcus pneumoniae ATCC6305, read-out: IC90 (μg/ml) SPN 6305.

≈ marks a conversion by molar mass, not a printed value. Read-outs that look alike come from different tables or passages of the source.

This note sets out measurements from patent US20100069366A1, “ANTIBACTERIAL QUINOLINE DERIVATIVES” (JANSSEN-CILAG, priority 2006, published 2010).

Consider `COc1nc2ccc(Br)cc2cc1/C(=C(/CCN(C)C)c1ccccc1)c1ccc(Cl)cc1` [Compound 1], for which the IC90 in assay [1] (setting [4]) was determined as 1.65 µg/mL (≈ 3.16 µM); in assay [2] (setting [5]), 8.27 µg/mL (≈ 15.8 µM); in assay [3] (setting [6]), 1.65 µg/mL (≈ 3.16 µM).
Take `COc1nc2ccc(F)cc2cc1C(=C(CCN(C)C)c1ccccc1)c1ccccc1` (single isomer, unassigned) [Compound 39]: in assay [1] (setting [7]), the “M. smegmatis IC90” value stood at 16.98 µg/mL. Also, in assay [2] (setting [8]), the “IC90 (μg/ml) STA 29213” value worked out at 33.88 µg/mL (≈ 79.4 µM). Further, in assay [3] (setting [9]), the “IC90 (μg/ml) SPN 6305” value is 8.51 µg/mL (≈ 20 µM).
For the compound `COc1nc2ccc(Br)cc2cc1C(/C(=C/Cc1ccccc1)CCN(C)C)c1ccccc1` (centres unmarked) [Compound 7], the IC90 in assay [1] (setting [10]) was 1.63 µg/mL (≈ 3.16 µM); in assay [2] (setting [11]) it was 1.63 µg/mL (≈ 3.16 µM); in assay [3] (setting [12]), 2.05 µg/mL (≈ 3.98 µM).
For `CSc1nc2ccc(Br)cc2cc1/C(=C(\CCN(C)C)c1ccccc1)c1ccccc1` [Compound 3], the figures for the IC90 in assay [1] (setting [4]), in assay [2] (setting [5]) and in assay [3] (setting [6]) were 2 µg/mL (≈ 3.97 µM), 7.98 µg/mL (≈ 15.8 µM) and 1.59 µg/mL (≈ 3.16 µM), respectively.
As for `COc1nc2ccc(Br)cc2cc1C(/C(=C/C#N)CCCCN1CC2CC1CN2Cc1ccccc1)c1ccccc1` (centres unmarked) [Compound 60], the IC90 in assay [1] (setting [10]) was found to be 1.97 µg/mL (≈ 3.17 µM); in assay [2] (setting [11]) it was 1.97 µg/mL (≈ 3.17 µM); in assay [3] (setting [12]), 2.48 µg/mL (≈ 3.99 µM).
On to `COc1ccc(/C(=C(\CCCCN2CCCCC2)c2ccc(Cl)cc2)c2cnc3ccccc3c2)cc1` [Compound 58], for which the figures for the IC90 in assay [1] (setting [4]), in assay [2] (setting [5]) and in assay [3] (setting [6]) were 8.1 µg/mL (≈ 15.8 µM), 10.2 µg/mL (≈ 20 µM) and 12.8 µg/mL (≈ 25.1 µM), respectively.
As for `COc1ccc(/C(CCCCN2CCCCC2)=C(/c2ccccc2)c2cnc3ccccc3c2)cc1` [Compound 51], the IC90 was found to be 7.55 µg/mL (≈ 15.8 µM) in assay [1] (setting [10]), 47.7 µg/mL (≈ 100 µM) in assay [2] (setting [11]) and 21.3 µg/mL (≈ 44.7 µM) in assay [3] (setting [12]).
On to `COc1nc2ccc(-c3cc4ccccc4s3)cc2cc1C(C(=CCN(C)C)c1cccc(F)c1)c1ccccc1` (racemic) [Compound 33], for which, in assay [1] (setting [7]), the “M. smegmatis IC90” value stood at 7.03 µg/mL. For the same compound, the “IC90 (μg/ml) STA 29213” value in assay [2] (setting [8]) was determined as 8.86 µg/mL (≈ 15.9 µM). In addition, the “IC90 (μg/ml) SPN 6305” value in assay [3] (setting [9]) was 7.89 µg/mL (≈ 14.1 µM).
The matching figures for `COc1nc2ccc(-c3ccccc3)cc2cc1C(=C(CCn1ccnc1)c1ccccc1)c1ccccc1` [Compound 46]: 1.61 µg/mL, 9.03 µg/mL (≈ 17.8 µM) and 8.05 µg/mL (≈ 15.9 µM).
Regarding `Clc1ccc(/C(CCCCN2CCCCC2)=C(/c2ccccc2)c2cnc3ccccc3c2)cc1` [Compound 50], the figures for the IC90 in assay [1] (setting [4]) and in assay [3] (setting [6]) were 1.92 µg/mL (≈ 3.99 µM) and 9.6 µg/mL (≈ 20 µM), respectively.
Regarding `COc1nc2ccc(Br)cc2cc1C(=C(CCn1cncn1)c1ccccc1)c1ccccc1` (single isomer, unassigned) [Compound 42], the “M. smegmatis IC90” value in assay [1] (setting [7]) was found to be 22.84 µg/mL.
For the compound `COc1nc2ccc(F)cc2cc1C(C(=CCN(C)C)c1ccccc1)c1ccccc1` (racemic) [Compound 24], in assay [1] (setting [7]), the “M. smegmatis IC90” value came to 5.37 µg/mL. Also, the “IC90 (μg/ml) STA 29213” value in assay [2] (setting [8]) amounted to 33.88 µg/mL (≈ 79.4 µM). Also, the “IC90 (μg/ml) SPN 6305” value in assay [3] (setting [9]) worked out at 1.51 µg/mL (≈ 3.54 µM).
For `COc1nc2ccc(Br)cc2cc1C(=C(CCN1CCN(C)CC1)c1ccccc1)c1ccccc1` (mixture of isomers) [Compound 45], in that order: 9.65 µg/mL, 43.09 µg/mL and 10.82 µg/mL.
Regarding `COc1nc2ccc(Br)cc2cc1C(/C(=C\CCCN1CCCN(C)CC1)c1ccc2ccccc2c1)c1ccccc1` (centres unmarked) [Compound 62], the IC90 came to 8.97 µg/mL (≈ 14.1 µM) in assay [1] (setting [10]) and 22.5 µg/mL (≈ 35.5 µM) in assay [2] (setting [11]).
For `COc1nc2ccc(Br)cc2cc1/C(=C(\C)CCN(C)C)c1ccccc1` [Compound 15], the figures for the IC90 in assay [1] (setting [10]), in assay [2] (setting [11]) and in assay [3] (setting [12]) were 1.35 µg/mL (≈ 3.17 µM), 33.8 µg/mL (≈ 79.4 µM) and 6.74 µg/mL (≈ 15.8 µM), respectively.
